Here are results for eleven compounds from patent publication US20160289236A1, “Protein Kinase Inhibitors” (PHARMASCIENCE INC., priority 2013, published 2016).

The subject of one test is splenocytes. As to the kind of experiment: Splenic cell proliferation assay (anti-IgM stimulated, Cell Titer-Glo). As to conditions: Splenocyte; CD1 mouse splenocytes, 2.5 ug/ml anti-IgM F(ab')2 for 72 h, 1 h compound pre-treatment; read-out: EC50 (nM), Inhibition of splenic cell proliferation. The test is classed as cell-based. As for the experimental part: Proliferation of splenocytes in response to anti-IgM can be blocked by inhibition of Btk. Splenocytes were obtained from 6 week old male CD1 mice (Charles River Laboratories Inc.). Mouse spleens were manually disrupted in PBS and filtered using a 70 um cell strainer followed by ammonium chloride red blood cell lysis. Cells were washed, resuspended in Splenocyte Medium (HyClone RPMI supplemented with 10% heat-inactivated FBS, 0.5× non-essential amino acids, 10 mM HEPES, 50 uM beta mercaptoethanol), and incubated at 37° C., 5% CO2 for 2 h, to remove adherent cells. Suspension cells were seeded in 96 well plates, at 50,000 cells per well, and incubated at 37° C., 5% CO2 for 1 h. Splenocytes were pre-treated in triplicate with 10,000 nM curves of Formula I, compounds for 1 h, followed by stimulation of cell proliferation with 2.5 ug/ml anti-IgM F(ab′)2 (Jackson Immuno Research) for 72 h. Cell proliferation was measured by Cell Titer-Glo Luminescent Assay (Promega). EC50 values (50% proliferation in the presence of compound, as compared to vehicle treated controls) were calculated from dose response compound curves using GraphPad Prism Software.
On the technique in general: In ATP-based viability assays light output follows the ATP content of the culture.

Test [1] addresses T1, histidine tagged recombinant human full-length Bruton Agammaglobulinemia Tyrosine Kinase (Btk) (Homo sapiens, UniProt Q06187).
T1 construct: histidine tagged recombinant human full-length Bruton Agammaglobulinemia Tyrosine Kinase (Btk); His tag
The test can be described thus: Btk kinase inhibition assay, Method A (fluorescence polarization, KinEASE FP Fluorescein Green). The format is biochemical. As to conditions: 10 μM ATP, 250 μM substrate, 60 minutes, Ki calculated from IC50 with Cheng-Prusoff equation. The method, then:
Fluorescence polarization-based kinase assays were performed in 384 well-plate format using histidine tagged recombinant human full-length Bruton Agammaglobulinemia Tyrosine Kinase (Btk), and a modified protocol of the KinEASE™ FP Fluorescein Green Assay supplied from Millipore®. Kinase reaction were performed at room temperature for 60 minutes, in presence of 250 μM substrate, 10 μM ATP, and variable test article concentrations. The reaction was stopped with EDTA/kinease detection reagents. Phosphorylation of the substrate peptide was detected by fluorescence polarization, measured with a Tecan 500 instrument. From the dose-response curve obtained, the IC50 was calculated using Graph Pad Prisms®, using a non linear fit curve. The Km for ATP on each enzyme was experimentally determined and the Ki values calculated using the Cheng-Prusoff equation (see: Cheng Y, Prusoff W H. (1973) Relationship between the inhibition constant (K1), and the concentration of inhibitor which causes 50% inhibition (I50) of an enzymatic reaction”. Biochem Pharmacol 22 (23): 3099-108).

A further test has as its target T2, human BTK kinase (hBTK) (Homo sapiens, UniProt Q06187).
T2 construct: purchased Eurofins Pharma Discovery Services UK Limited
The test can be described thus: Btk kinase inhibition assay, Method B (KinaseProfiler radiometric protein kinase assay, Eurofins). As to conditions: [γ-33P-ATP], 250 μM substrate, 40 minutes. The test is classed as biochemical. As for the experimental part: In vitro potency of selected compound was defined against human BTK kinase (hBTK) using KinaseProfiler radiometric protein kinase assays performed at Eurofins Pharma Discovery Services UK Limited.
hBTK kinase is diluted in buffer and all compounds were prepared to 50× final assay concentration in 100% DMSO. This working stock of the compound was added to the assay well as the first component in the reaction, followed by the remaining components as detailed in the assay protocol listed above. The reaction was initiated by the addition of the MgATP mix. The kinase reaction was performed at room temperature for 40 minutes, in presence of 250 μM substrate, 10 mM MgAcetate, [γ-33P-ATP] (specific activity approx. 500 cpm/pmol, concentration as required) and variable test article concentrations. The ATP concentrations in the assays were with 15 μM of the apparent. The reaction was stopped by the addition of 3% phosphoric acid solution. 10 μL of the reaction is then spotted onto a P30 filtermat and washed three times for 5 minutes in 75 mM phosphoric acid and once in methanol, prior to drying, and scintillation counting. […]

For orientation: Ki means the dissociation constant of the complex between target and ligand, obtained from inhibition or displacement.

T1 sequence (Q06187 whole entry): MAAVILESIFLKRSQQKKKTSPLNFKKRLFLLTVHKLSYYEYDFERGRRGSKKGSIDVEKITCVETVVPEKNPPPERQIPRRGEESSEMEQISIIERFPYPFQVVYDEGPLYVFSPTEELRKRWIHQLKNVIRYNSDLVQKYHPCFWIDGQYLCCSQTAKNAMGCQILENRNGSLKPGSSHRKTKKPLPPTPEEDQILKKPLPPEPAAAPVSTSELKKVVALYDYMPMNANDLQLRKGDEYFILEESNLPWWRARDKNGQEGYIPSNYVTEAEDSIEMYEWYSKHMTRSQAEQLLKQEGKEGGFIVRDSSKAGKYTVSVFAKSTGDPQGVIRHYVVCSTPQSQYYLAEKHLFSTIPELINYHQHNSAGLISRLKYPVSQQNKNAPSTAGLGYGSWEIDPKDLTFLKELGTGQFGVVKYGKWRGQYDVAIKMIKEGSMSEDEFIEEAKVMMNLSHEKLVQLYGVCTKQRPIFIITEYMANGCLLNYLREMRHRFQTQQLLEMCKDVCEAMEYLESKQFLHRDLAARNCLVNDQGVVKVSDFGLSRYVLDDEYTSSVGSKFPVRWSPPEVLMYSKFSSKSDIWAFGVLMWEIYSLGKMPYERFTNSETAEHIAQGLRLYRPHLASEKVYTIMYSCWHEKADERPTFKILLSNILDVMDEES
T2 sequence (Q06187 whole entry): as above

Turning to `Cc1ncc(COc2cc(F)cc(Oc3ccc(-n4cc(C5CCOCC5)c5ncnc(N)c54)cc3)c2)s1` [Compound 6], the EC50 in the test with splenocytes is less than 100 nM. Besides, the inhibitory constant (Ki) in test [1] is less than 100 nM.
On to `Cc1ncc(COc2cc(F)cc(Oc3ccc(-n4cc(C5CCOCC5)c5ncnc(N)c54)cc3)c2)cn1` [Compound 7], for which the EC50 with splenocytes was less than 100 nM. The Ki in test [1] is less than 100 nM.
Consider `Cc1ncc(COc2cc(F)cc(Oc3ccc(-n4cc(C5CC(CO)C5)c5ncnc(N)c54)cc3)c2)cn1` (stereo not drawn) [Compound 10], for which the EC50 in the test on splenocytes is less than 100 nM.
For the compound `Cc1ncc(COc2cc(F)cc(Oc3ccc(-n4cc(C(C)C)c5ncnc(N)c54)cc3)c2)s1` [Compound 2], the EC50 with splenocytes is less than 100 nM. Further, the Ki in test [1] was less than 100 nM.
`Cc1ncc(COc2cc(F)cc(Oc3ccc(-n4cc(C5CCCC5)c5ncnc(N)c54)cc3)c2)s1` [Compound 3]: the EC50 in the test with splenocytes is less than 100 nM.
Consider `Cc1ccc(COc2cc(F)cc(Oc3ccc(-n4cc(C(C)C)c5ncnc(N)c54)cc3)c2)cn1` [Compound 1], for which, in the test with splenocytes, the EC50 was less than 100 nM. Also, the Ki in test [1] was less than 100 nM.
Regarding `Cc1ccc(COc2cc(F)cc(Oc3ccc(-n4cc(C5CCOCC5)c5ncnc(N)c54)cc3)c2)cn1` [Compound 5], the EC50 in the test on splenocytes was less than 100 nM. Besides, the Ki in test [1] was less than 100 nM.
On to `Cc1ncc(COc2cc(F)cc(Oc3ccc(-n4cc([C@H]5C[C@@H](O)C5)c5ncnc(N)c54)cc3)c2)cn1` [Compound 11], for which the EC50 in the test with splenocytes and on human BTK kinase (hBTK) was less than 100 nM each time.
Consider `Cc1ncc(COc2cc(F)cc(Oc3ccc(-n4cc(C5CCCC5)c5ncnc(N)c54)cc3)c2)cn1` [Compound 8], for which the EC50 in the test with splenocytes is less than 100 nM.
For `Cc1ncc(COc2cc(F)cc(Oc3ccc(-n4cc(C(C)C)c5ncnc(N)c54)cc3)c2)cn1` [Compound 9], the EC50 in the test with splenocytes was less than 100 nM. In addition, the Ki in test [1] is less than 100 nM.
As for `Cc1ccc(COc2cc(F)cc(Oc3ccc(-n4cc(C5CCCC5)c5ncnc(N)c54)cc3)c2)cn1` [Compound 4], the EC50 in the test with splenocytes is less than 100 nM.
